Reference: PubChem BioAssay AID518 (Sanford-Burnham Center for Chemical Genomics, 2006)

Target: Alkaline phosphatase, tissue-nonspecific isozyme (Homo sapiens) (UniProt P05186)
Experiment: inhibition of tissue-nonspecific alkaline phosphatase – biochemical, luminescent (AID 518)
Settings: purified TNAP enzyme, luminescent substrate readout

Alkaline phosphatase, tissue-nonspecific isozyme (Homo sapiens), sequence (P05186 whole entry, looked up): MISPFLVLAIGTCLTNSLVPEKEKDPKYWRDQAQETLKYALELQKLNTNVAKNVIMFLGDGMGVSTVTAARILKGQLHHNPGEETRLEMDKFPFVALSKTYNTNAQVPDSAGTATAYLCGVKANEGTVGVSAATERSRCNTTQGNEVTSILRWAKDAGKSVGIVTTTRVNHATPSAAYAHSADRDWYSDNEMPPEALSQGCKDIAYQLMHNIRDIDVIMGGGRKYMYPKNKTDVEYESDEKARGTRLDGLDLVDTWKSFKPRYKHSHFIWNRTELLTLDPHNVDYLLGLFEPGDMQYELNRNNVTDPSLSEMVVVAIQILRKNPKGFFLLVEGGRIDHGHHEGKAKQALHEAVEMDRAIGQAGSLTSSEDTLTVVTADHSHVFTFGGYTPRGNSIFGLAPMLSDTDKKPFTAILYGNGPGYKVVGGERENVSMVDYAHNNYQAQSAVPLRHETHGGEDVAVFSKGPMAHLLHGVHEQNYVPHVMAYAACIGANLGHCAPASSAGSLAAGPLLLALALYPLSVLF

IC50 [nM] | SMILES
5250 | COCc1[nH]nc2c1C(c1cc(OC)c(O)c(OC)c1)C(C#N)=C(N)O2 (stereo not drawn)
1730 | C/C(N)=C(/C#N)C(=O)CSc1n[nH]c(-c2ccccc2Br)n1
330 | O=C1C2CC=CCC2C(=O)N1c1n[nH]c(Cc2ccccc2)n1 (stereo not drawn)
